Reference: PubChem BioAssay (NCI)
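Method: 48-hour compound exposure of cells in 96-well plates, five concentrations, linear interpolation of endpoints. GI50 is the concentration that inhibits growth by half. TGI: concentration producing complete growth inhibition.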

Key:
Assay in all cases: DTP human tumour cell line panel, 48 h; in the data active means GI50 below about 0.43 µM; inactive means the rest
HCC-2998 colon = system: HCC-2998 colon
OVCAR-5 ovarian = system: OVCAR-5 ovarian
786-0 renal = system: 786-0 renal
OVCAR-8 ovarian = system: OVCAR-8 ovarian
MALME-3M melanoma = system: MALME-3M melanoma
KM12 colon = system: KM12 colon
SK-MEL-28 melanoma = system: SK-MEL-28 melanoma
MDA-MB-435 = system: MDA-MB-435
SF-295 CNS = system: SF-295 CNS
SN12C renal = system: SN12C renal
SNB-75 CNS = system: SNB-75 CNS
NCI-H460 lung = system: NCI-H460 lung
UACC-62 melanoma = system: UACC-62 melanoma
HOP-92 NSCLC = system: HOP-92 NSCLC
U251 CNS = system: U251 CNS
HCT-15 colon = system: HCT-15 colon
DU-145 prostate = system: DU-145 prostate
OVCAR-4 ovarian = system: OVCAR-4 ovarian
NCI-H522 lung = system: NCI-H522 lung
HCT-116 colon = system: HCT-116 colon
UO-31 renal = system: UO-31 renal
SF-268 CNS = system: SF-268 CNS
UACC-257 melanoma = system: UACC-257 melanoma
CAKI-1 renal = system: CAKI-1 renal
K-562 leukemia = system: K-562 leukemia
COLO 205 colon = system: COLO 205 colon
IGROV1 ovarian = system: IGROV1 ovarian
SW-620 colon = system: SW-620 colon
NCI-H23 lung = system: NCI-H23 lung
T-47D breast = system: T-47D breast
RXF 393 renal = system: RXF 393 renal
TK-10 renal = system: TK-10 renal
SK-MEL-2 melanoma = system: SK-MEL-2 melanoma
MDA-MB-231 breast = system: MDA-MB-231 breast
MCF7 breast = system: MCF7 breast
NCI/ADR-RES ovarian = system: NCI/ADR-RES ovarian
SK-MEL-5 melanoma = system: SK-MEL-5 melanoma
OVCAR-3 ovarian = system: OVCAR-3 ovarian
SF-539 CNS = system: SF-539 CNS
PC-3 prostate = system: PC-3 prostate
A498 renal = system: A498 renal
NCI-H226 lung = system: NCI-H226 lung
HT29 colon = system: HT29 colon
SNB-19 CNS = system: SNB-19 CNS
M14 melanoma = system: M14 melanoma
BT-549 breast = system: BT-549 breast
RPMI-8226 leukemia = system: RPMI-8226 leukemia
A549 NSCLC = system: A549 NSCLC
ACHN renal = system: ACHN renal
HL-60(TB) leukemia = system: HL-60(TB) leukemia
HOP-62 NSCLC = system: HOP-62 NSCLC
SK-OV-3 ovarian = system: SK-OV-3 ovarian
LOX IMVI melanoma = system: LOX IMVI melanoma
MOLT-4 leukemia = system: MOLT-4 leukemia
EKVX NSCLC = system: EKVX NSCLC
HS 578T breast = system: HS 578T breast
CCRF-CEM leukemia = system: CCRF-CEM leukemia

COc1ccc(NC2Oc3cc4c(cc3C(c3cc(OC)c(O)c(OC)c3)C2C)OCO4)cc1 (centres undefined)
25.6 µM: TGI (SF-539 CNS)
23.3 µM: TGI (NCI-H460 lung)
11.3 µM: TGI (HCT-15 colon)
37.3 µM: TGI (SK-MEL-28 melanoma)
35.2 µM: TGI (MALME-3M melanoma) | TGI (UACC-62 melanoma)
98 µM: TGI (NCI/ADR-RES ovarian)
27.3 µM: TGI (NCI-H522 lung)
60.5 µM: TGI (SF-295 CNS)
21.7 µM: TGI (HCC-2998 colon)
4.51 µM: TGI (HL-60(TB) leukemia)
37.9 µM: TGI (786-0 renal)
> 100 µM: TGI (KM12 colon) | TGI (HOP-92 NSCLC) | TGI (DU-145 prostate) | TGI (OVCAR-4 ovarian) | TGI (SF-268 CNS) | TGI (UACC-257 melanoma) | TGI (IGROV1 ovarian) | TGI (SW-620 colon) | TGI (NCI-H23 lung) | TGI (T-47D breast) | TGI (MCF7 breast) | TGI (OVCAR-3 ovarian) | TGI (PC-3 prostate) | TGI (HT29 colon) | TGI (SNB-19 CNS) | TGI (M14 melanoma) | TGI (BT-549 breast)
32.1 µM: TGI (ACHN renal)
6.72 µM: TGI (SK-MEL-2 melanoma)
29.6 µM: TGI (HCT-116 colon)
67.7 µM: TGI (OVCAR-8 ovarian)
15 µM: TGI (SNB-75 CNS)
2.51 µM: TGI (MDA-MB-435)
61.8 µM: TGI (RXF 393 renal)
11 µM: TGI (MDA-MB-231 breast)
73.7 µM: TGI (OVCAR-5 ovarian)
23.5 µM: TGI (A549 NSCLC)
11.7 µM: TGI (SN12C renal)
39 µM: TGI (COLO 205 colon)
31.7 µM: TGI (A498 renal)
93.6 µM: TGI (NCI-H226 lung)
35.1 µM: TGI (U251 CNS)
12.9 µM: TGI (RPMI-8226 leukemia)
31.3 µM: TGI (UO-31 renal)
12.3 µM: TGI (K-562 leukemia)
30 µM: TGI (CAKI-1 renal)
17.7 µM: TGI (TK-10 renal)
4.34 µM: TGI (SK-MEL-5 melanoma)

CC(C)c1ccc(Cc2cnc(NC(=O)c3cc(Br)cs3)s2)cc1
5.31 µM: TGI (NCI/ADR-RES ovarian)
5.97 µM: TGI (RXF 393 renal)
87.5 µM: TGI (HOP-92 NSCLC)
19.4 µM: TGI (TK-10 renal) | TGI (MDA-MB-231 breast)
active: GI50 (MDA-MB-435) 0.355 µM | GI50 (A498 renal) 0.242 µM
5.76 µM: TGI (NCI-H522 lung)
64.4 µM: TGI (SK-MEL-2 melanoma)
> 100 µM: TGI (HCC-2998 colon) | TGI (OVCAR-5 ovarian) | TGI (786-0 renal) | TGI (OVCAR-8 ovarian) | TGI (MALME-3M melanoma) | TGI (KM12 colon) | TGI (SK-MEL-28 melanoma) | TGI (SN12C renal) | TGI (NCI-H460 lung) | TGI (UACC-62 melanoma) | TGI (U251 CNS) | TGI (HCT-15 colon) | TGI (DU-145 prostate) | TGI (OVCAR-4 ovarian) | TGI (HCT-116 colon) | TGI (UO-31 renal) | TGI (SF-268 CNS) | TGI (UACC-257 melanoma) | TGI (CAKI-1 renal) | TGI (K-562 leukemia) | TGI (LOX IMVI melanoma) | TGI (IGROV1 ovarian) | TGI (MOLT-4 leukemia) | TGI (SW-620 colon) | TGI (NCI-H23 lung) | TGI (T-47D breast) | TGI (MCF7 breast) | TGI (EKVX NSCLC) | TGI (SK-MEL-5 melanoma) | TGI (OVCAR-3 ovarian) | TGI (PC-3 prostate) | TGI (NCI-H226 lung) | TGI (HT29 colon) | TGI (SNB-19 CNS) | TGI (M14 melanoma) | TGI (CCRF-CEM leukemia) | TGI (BT-549 breast) | TGI (RPMI-8226 leukemia) | TGI (A549 NSCLC) | TGI (ACHN renal) | TGI (HL-60(TB) leukemia)
5.64 µM: TGI (SF-539 CNS)
inactive: GI50 (HCC-2998 colon) 3.65 µM | GI50 (OVCAR-5 ovarian) 4.95 µM | GI50 (786-0 renal) 4.55 µM | GI50 (OVCAR-8 ovarian) 4.4 µM | GI50 (MALME-3M melanoma) 3.44 µM | GI50 (KM12 colon) 2.12 µM | GI50 (SK-MEL-28 melanoma) 5.41 µM | GI50 (SF-295 CNS) 2 µM | GI50 (SN12C renal) 4.21 µM | GI50 (SNB-75 CNS) 1.05 µM | GI50 (NCI-H460 lung) 3.3 µM | GI50 (UACC-62 melanoma) 1.38 µM | GI50 (HOP-62 NSCLC) 3.05 µM | GI50 (HOP-92 NSCLC) 5.51 µM | GI50 (U251 CNS) 3.42 µM | GI50 (HCT-15 colon) 0.789 µM | GI50 (DU-145 prostate) 3.67 µM | GI50 (OVCAR-4 ovarian) 4.65 µM | GI50 (NCI-H522 lung) 1.48 µM | GI50 (HCT-116 colon) 2.98 µM | GI50 (SK-OV-3 ovarian) 6.06 µM | GI50 (UO-31 renal) 3.8 µM | GI50 (SF-268 CNS) 5.89 µM | GI50 (UACC-257 melanoma) 7.6 µM | GI50 (CAKI-1 renal) 1.16 µM | GI50 (K-562 leukemia) 0.436 µM | GI50 (LOX IMVI melanoma) 5.35 µM | GI50 (COLO 205 colon) 2.92 µM | GI50 (IGROV1 ovarian) 3.7 µM | GI50 (MOLT-4 leukemia) 7.59 µM | GI50 (SW-620 colon) 2.98 µM | GI50 (NCI-H23 lung) 3.45 µM | GI50 (T-47D breast) 4.27 µM | GI50 (RXF 393 renal) 1.75 µM | GI50 (TK-10 renal) 2.72 µM | GI50 (SK-MEL-2 melanoma) 7.43 µM | GI50 (MDA-MB-231 breast) 3.09 µM | GI50 (MCF7 breast) 1.6 µM | GI50 (EKVX NSCLC) 4 µM | GI50 (HS 578T breast) 2.48 µM | GI50 (NCI/ADR-RES ovarian) 1.73 µM | GI50 (SK-MEL-5 melanoma) 1.9 µM | GI50 (OVCAR-3 ovarian) 2.75 µM | GI50 (SF-539 CNS) 2.04 µM | GI50 (PC-3 prostate) 2.23 µM | GI50 (NCI-H226 lung) 5.68 µM | GI50 (HT29 colon) 4.5 µM | GI50 (SNB-19 CNS) 5.02 µM | GI50 (M14 melanoma) 2.44 µM | GI50 (CCRF-CEM leukemia) 4.08 µM | GI50 (BT-549 breast) 3.81 µM | GI50 (RPMI-8226 leukemia) 3.6 µM | GI50 (A549 NSCLC) 3.65 µM | GI50 (ACHN renal) 4.64 µM | GI50 (HL-60(TB) leukemia) 3.6 µM
15 µM: TGI (COLO 205 colon)
29.2 µM: TGI (HOP-62 NSCLC)
7.76 µM: TGI (SNB-75 CNS)
2.16 µM: TGI (MDA-MB-435)
58.2 µM: TGI (HS 578T breast)
4.67 µM: TGI (A498 renal)
95.7 µM: TGI (SK-OV-3 ovarian)
19.6 µM: TGI (SF-295 CNS)
